Data as given in patent US10087191B2, “Piperidine derivative and preparation method and pharmaceutical use thereof” (Jiangsu Hengrui Medicine Co., Ltd., priority 2015, dated 2018).

Columns and labels:
[1] = system: MCF7 cells; test: Inhibition of the proliferation of MCF7 cells (Cell Titer-Glo); assay type: cell-based; conditions: Homo sapiens, MCF-7 cells, 72 hours, read-out: IC50 value of inhibition effect on the proliferation of MCF7 cells
Description: The object of this experiment was to determine the inhibition effect of the compounds on the proliferation activity of MCF7 cells, and the in vitro activity of the compounds was evaluated according to the IC50 value.
After incubation for 24 hours, the medium was removed, then 90 μl of the medium containing 2% FBS and 10 μl of the drug were added to each well, 10 μl of DMSO were added to the control group, and the blank group contained only 100 μl medium containing 2% FBS. The plate was gently shaken and incubated in a incubator at 37° C., 5% CO2. After 72 hours, 50 μl of mixed Cell Titer-Glo (Promega, Cat. No. G7571) were added to each well. The plate was shaken until the ingredients were well mixed, and placed at room temperature for 10 minutes, then the chemiluminescence signal value was determined.
The values of the chemiluminescence signals vs the logarithmic concentrations of the compounds were plotted using Graghpad Prism to obtain IC50 values.

[2] = Pharmacokinetics assay in BALB/C nude mice after intragastrical administration; assay type: in vivo; conditions: female, mouse, plasma, po, 3 mg/kg; for AUC: read-out: Area Under Curve AUC; for CL/F: read-out: Clearance CL/F (converted); for half-life: read-out: Half-Life t½ (converted); for MRT: read-out: Mean Residence Time MRT; for Cmax: read-out: Plasma Conc. Cmax
Description: BALB/C nude mice were used as test animals. The drug concentration in plasma at different time points was determined by LC/MS/MS after intragastrical administration of the compounds of Examples 10, 14, 20, 21, 57, 68, 71, 73, 74, 76 and 89 to BALB/C nude mice. The pharmacokinetic behavior of the compounds of the present invention was studied and evaluated in BALB/C nude mice.
Ninety-nine (99) female BALB/C nude mice were equally divided into 11 groups, which were purchased from SINO-BRITSH SIPPR/BK LAB. ANIMAL LTD., CO, with Certificate No.: SCXK (Shanghai) 2008-0016.
The appropriate amount of each test compound was weighed, and successively added with 9% PEG400+0.5% tween 80+0.5% PVP+90% aqueous solution of 0.5% CMC.
After an overnight fast, 99 female BALB/C nude mice were equally divided into 11 groups, and administered the test compounds intragastrically at an administration volume of 0.2 mL/10 g.
Blood (0.1 mL) was sampled (3 mice at each time point) at 0.5, 1.0, 2.0, 4.0, 6.0, 8.0, 11.0 and 24.0 hours after administration. The samples were stored in heparinized test tubes, and centrifuged for 10 minutes at 3,500 rpm to separate the blood plasma. The plasma samples were stored at −20° C. The plasma concentration of the test compounds in BALB/C nude mice after intragastrical administration was determined by LC/MS/MS.
Pharmacokinetic parameters of the compounds of Examples 10, 14, 20, 21, 57, 68, 71, 73, 74, 76 and 89 of the present invention are shown below.

Structure (SMILES)	IC50 [1] [nM]	other results
CC1Cc2cc(O)ccc2C(c2c(F)cc(/C=C/C(=O)O)cc2F)N1CC(C)(C)F [Example 3, (E)-3-(3,5-difluoro-4-((1S,3R/1R,3S)-2-(2-fluoro-2-methylpropyl)-6-hydroxy-3-methyl-1,2,3,4-tetrahydroisoquinolin-1-yl)phenyl)acrylic acid]	2.12	
Cc1ncc(-c2ccc3c(c2)CC(C)N(CC(C)(C)F)C3c2c(F)cc(/C=C/C(=O)O)cc2F)s1 [Example 10, (E)-3-(3,5-difluoro-4-((1S,3R/1R,3S)-2-(2-fluoro-2-methylpropyl)-3-methyl-6-(2-methylthiazol-5-yl)-1,2,3,4-tetrahydroisoquinolin-1-yl)phenyl)acrylic acid]	0.49	AUC [2]: 15400 ng·h/mL; CL/F [2]: 54 mL/min/kg; half-life [2]: 4.11 h; MRT [2]: 5.72 h; Cmax [2]: 2600 ng/mL
Cc1ncc(-c2ccc3c(c2)C[C@@H](C)N(CC(C)(C)F)[C@@H]3c2c(F)cc(/C=C/C(=O)O)cc2F)s1 [Example 11, (E)-3-(3,5-difluoro-4-((1S,3R)-2-(2-fluoro-2-methylpropyl)-3-methyl-6-(2-methylthiazol-5-yl)-1,2,3,4-tetrahydroisoquinolin-1-yl)phenyl)acrylic acid]	0.08	
CCn1cc(-c2ccc3c(c2)CC(C)N(CC(C)(C)F)C3c2c(F)cc(/C=C/C(=O)O)cc2F)cn1 [Example 20, (E)-3-(4-((1S,3R/1R,3S)-6-(1-ethyl-1H-pyrazol-4-yl)-2-(2-fluoro-2-methylpropyl)-3-methyl-1,2,3,4-tetrahydroisoquinolin-1-yl)-3,5-difluorophenyl)acrylic acid]	0.03	AUC [2]: 13000 ng·h/mL; CL/F [2]: 63.8 mL/min/kg; half-life [2]: 3.27 h; MRT [2]: 4.07 h; Cmax [2]: 3290 ng/mL
CCn1cc(-c2ccc3c(c2)C[C@@H](C)N(CC(C)(C)F)[C@@H]3c2c(F)cc(/C=C/C(=O)O)cc2F)cn1 [Example 21, (E)-3-(4-((1S,3R)-6-(1-ethyl-1H-pyrazol-4-yl)-2-(2-fluoro-2-methylpropyl)-3-methyl-1,2,3,4-tetrahydroisoquinolin-1-yl)-3,5-difluorophenyl)acrylic acid]	0.11	AUC [2]: 10100 ng·h/mL; CL/F [2]: 82.7 mL/min/kg; half-life [2]: 2.52 h; MRT [2]: 2.71 h; Cmax [2]: 4300 ng/mL
CCn1cc(-c2ccc3c(c2)C[C@H](C)N(CC(C)(C)F)[C@H]3c2c(F)cc(/C=C/C(=O)O)cc2F)cn1 [Example 22, (E)-3-(4-((1R,3S)-6-(1-ethyl-1H-pyrazol-4-yl)-2-(2-fluoro-2-methylpropyl)-3-methyl-1,2,3,4-tetrahydroisoquinolin-1-yl)-3,5-difluorophenyl)acrylic acid]	17.4	
C[C@@H]1Cc2cc(-c3cn[nH]c3)ccc2[C@@H](c2c(F)cc(/C=C/C(=O)O)cc2F)N1CC(C)(C)F [Example 25, (E)-3-(3,5-difluoro-4-((1S,3R)-2-(2-fluoro-2-methylpropyl)-3-methyl-6-(1H-pyrazol-4-yl)-1,2,3,4-tetrahydroisoquinolin-1-yl)phenyl)acrylic acid]	0.22	
CC1Cc2cc(-c3cccnc3)ccc2C(c2c(F)cc(/C=C/C(=O)O)cc2F)N1CC(C)(C)F [Example 28, (E)-3-(3,5-difluoro-4-((1S,3R/1R,3S)-2-(2-fluoro-2-methylpropyl)-3-methyl-6-(pyridin-3-yl)-1,2,3,4-tetrahydroisoquinolin-1-yl)phenyl)acrylic acid]	3.71	
CNC(=O)Nc1ccc2c(c1)CC(C)N(CC(C)(C)F)C2c1c(F)cc(/C=C/C(=O)O)cc1F [Example 29, (E)-3-(3,5-difluoro-4-((1S,3R/1R,3S)-2-(2-fluoro-2-methylpropyl)-3-methyl-6-(3-methylureido)-1,2,3,4-tetrahydroisoquinolin-1-yl)phenyl)acrylic acid]	4.82	
CC1Cc2cc(NC(=O)N(C)C)ccc2C(c2c(F)cc(/C=C/C(=O)O)cc2F)N1CC(C)(C)F [Example 44, (E)-3-(4-((1S,3R/1R,3S)-6-(3,3-dimethylureido)-2-(2-fluoro-2-methylpropyl)-3-methyl-1,2,3,4-tetrahydroisoquinolin-1-yl)-3,5-difluorophenyl)acrylic acid]	1.59	
CCc1nc(-c2ccc3c(c2)CC(C)N(CC(C)(C)F)C3c2c(F)cc(/C=C/C(=O)O)cc2F)no1 [Example 46, (E)-3-(4-((1S,3R/1R,3S)-6-(5-ethyl-1,2,4-oxadiazol-3-yl)-2-(2-fluoro-2-methylpropyl)-3-methyl-1,2,3,4-tetrahydroisoquinolin-1-yl)-3,5-difluorophenyl)acrylic acid]	3.66	
CC(C)CN1C(C)Cc2c(ccc3[nH]ncc23)C1c1c(F)cc(/C=C/C(=O)O)cc1F [Example 92, (E)-3-(3,5-difluoro-4-((6S,8R/6R,8S)-7-isobutyl-8-methyl-6,7,8,9-tetrahydro-3H-pyrazolo[4,3-f]isoquinolin-6-yl)phenyl)acrylic acid]	0.99	

Now from value to compound, other results behind:

IC50 [1] [nM]	Structure (SMILES)	other results
3.07	CC1Cc2cc(-c3nnn(C)n3)ccc2C(c2c(F)cc(/C=C/C(=O)O)cc2F)N1CC(C)(C)F [Example 51, (E)-3-(3,5-difluoro-4-((1S,3R/1R,3S)-2-(2-fluoro-2-methylpropyl)-3-methyl-6-(2-methyl-2H-tetrazol-5-yl)-1,2,3,4-tetrahydroisoquinolin-1-yl)phenyl)acrylic acid]	
15	Cc1noc(-c2ccc3c(c2)CC(C)N(CC(C)(C)F)C3c2c(F)cc(/C=C/C(=O)O)cc2F)n1 [Example 53, (E)-3-(3,5-difluoro-4-((1S,3R/1R,3S)-2-(2-fluoro-2-methylpropyl)-3-methyl-6-(3-methyl-1,2,4-oxadiazol-5-yl)-1,2,3,4-tetrahydroisoquinolin-1-yl)phenyl)acrylic acid]	
0.01	C[C@H]1Cc2cc(-c3cnn(C)c3)ccc2[C@H](c2c(F)cc(/C=C/C(=O)O)cc2F)N1CC(C)(C)F [Example 56, (E)-3-(3,5-difluoro-4-((1R,3S)-2-(2-fluoro-2-methylpropyl)-3-methyl-6-(1-methyl-1H-pyrazol-4-yl)-1,2,3,4-tetrahydroisoquinolin-1-yl)phenyl)acrylic acid]	
3.58	CC1Cc2cc(-c3ccc(-c4cnn(C)c4)nc3)ccc2C(c2c(F)cc(/C=C/C(=O)O)cc2F)N1CC(C)(C)F [Example 61, (E)-3-(3,5-difluoro-4-((1S,3R/1R,3S)-2-(2-fluoro-2-methylpropyl)-3-methyl-6-(6-(1-methyl-1H-pyrazol-4-yl)pyridin-3-yl)-1,2,3,4-tetrahydroisoquinolin-1-yl)phenyl)acrylic acid]	
4.21	CC1Cc2c(oc3c(F)cccc23)C(c2c(F)cc(/C=C/C(=O)O)cc2F)N1CC(C)(C)F [Example 84, (E)-3-(3,5-difluoro-4-((1R,3R/1S,3S)-8-fluoro-2-(2-fluoro-2-methylpropyl)-3-methyl-1,2,3,4-tetrahydrobenzofuro[2,3-c]pyridin-1-yl)phenyl)acrylic acid]	
9.27	CC1Cc2c(oc3ccc(Br)cc23)C(c2c(F)cc(/C=C/C(=O)O)cc2F)N1CC(C)(C)F [Example 87, (E)-3-(4-((1R,3R/1S,3S)-6-bromo-2-(2-fluoro-2-methylpropyl)-3-methyl-1,2,3,4-tetrahydrobenzofuro[2,3-c]pyridin-1-yl)-3,5-difluorophenyl)acrylic acid]	
0.21	CC1Cc2c(oc3ccc(-c4cccnc4)cc23)C(c2c(F)cc(/C=C/C(=O)O)cc2F)N1CC(C)(C)F [Example 90, (E)-3-(3,5-difluoro-4-((1R,3R/1S,3S)-2-(2-fluoro-2-methylpropyl)-3-methyl-6-(pyridin-3-yl)-1,2,3,4-tetrahydrobenzofuro[2,3-c]pyridin-1-yl)phenyl)acrylic acid]	
